Results from patent US20210070748A1, “INHIBITORS OF BRUTONS TYROSINE KINASE” (Pharmacyclics LLC, priority 2015, published 2021).
Read-outs that look alike come from different tables or passages of the source.

Target: T1, BTK-WT (Homo sapiens, UniProt Q06187)
T1 construct: purified from insect cells as a full-length construct containing an N-terminal 6X-His tag; His6 (N); made in house; host or cells: insect cells (baculovirus Sf21 in Method B)
Assay: Btk in vitro inhibitory activity (one of Method A TR-FRET, Method B electrophoretic mobility shift, Method C radiometric filter binding)
Assay type: biochemical
Settings: read-out: BTK-WT (IC50)
Description: Btk kinase activity is determined using a time-resolved fluorescence resonance energy transfer (TR-FRET) methodology. Measurements are performed in a reaction volume of 50 μL using 96-well assay plates. […] The reaction is quenched by the addition of 1.2 equivalents of EDTA (relative to divalent cation) in 25 μL of 1× Lance buffer (Perkin-Elmer). […] The TR-FRET signal is measured on a multimode plate reader with an excitation wavelength (λEx) of 330 nm and detection wavelengths (λEm) of 615 and 665 nm. Activity is determined by the ratio of the fluorescence at 665 nm to that at 615 nm. For each compound, enzyme activity is measured at various concentrations of compound. Negative control reactions are performed in the absence of inhibitor in replicates of six, and two no-enzyme controls are used to determine baseline fluorescence levels. Inhibition constants, Ki(app), were obtained using the program BatchKi(Kuzmic et al. (2000), Anal. Biochem. 286:45-50). IC50s are obtained according to the equation:
IC50={Ki(app)/(1+[ATP]/Km^ATP)}+[E]total/2;
Kinase activity is measured in vitro using electrophoretic mobility shift assay. The kinase reactions are assembled in a total volume of 25 μL in 384 well plates. […] The reaction is incubated for one hour and is quenched by the addition of 45 μL of termination buffer (100 mM HEPES, pH7.5, 0.01% Triton X-100, 30 mM EDTA). The terminated reactions are analyzed using 12 channel LabChip® 3000 microfluidic detection instrument (Caliper Life Sciences). […] Change in the relative fluorescence intensity of the substrate and product peaks is the parameter measured, reflecting enzyme activity. In the presence of an inhibitor, the ratio between product and substrate is altered: the signal of the product decreases, while the signal of the substrate increases.
Activity in each sample is determined as the product to sum ratio (PSR): P/(S+P), where P is the peak height of the product peptide and S is the peak height of the substrate peptide. For each compound, enzyme activity is measured at various concentrations (12 concentrations of compound spaced by 3× dilution intervals). Negative control samples (0%-inhibition in the absence of inhibitor) and positive control samples (100%-inhibition, in the presence of 20 mM EDTA) are assembled in replicates of four and are used to calculate %-inhibition values for each inhibitor at each concentration. Percent inhibition (Pinh) is determined using following equation:
Pinh=(PSR0%-PSRinh)/(PSR0%−PSR100%)*100, where PSRinh is the product sum ratio in the presence of inhibitor, PSR0% is the average product sum ration in the absence of inhibitor and PSR100% is the average product sum ratio in 100%-inhibition control samples;
The IC50 values of inhibitors are determined by 4 parameter sigmoidal dose-response model fitting of the inhibition curves (Pinh versus inhibitor concentration) using XLfit 4 software.
Human Btk kinase (Genbank accession # NP_000052) was purified from insect cells as a full-length construct containing an N-terminal 6X-His tag. Btk kinase activity was determined using a radiometric filter binding assay. Measurements are performed in a low μL reaction volume 384-well assay plates. […] IC50 values and curve fits were obtained using Prism (GraphPad Software).

T1 sequence (Q06187 whole entry): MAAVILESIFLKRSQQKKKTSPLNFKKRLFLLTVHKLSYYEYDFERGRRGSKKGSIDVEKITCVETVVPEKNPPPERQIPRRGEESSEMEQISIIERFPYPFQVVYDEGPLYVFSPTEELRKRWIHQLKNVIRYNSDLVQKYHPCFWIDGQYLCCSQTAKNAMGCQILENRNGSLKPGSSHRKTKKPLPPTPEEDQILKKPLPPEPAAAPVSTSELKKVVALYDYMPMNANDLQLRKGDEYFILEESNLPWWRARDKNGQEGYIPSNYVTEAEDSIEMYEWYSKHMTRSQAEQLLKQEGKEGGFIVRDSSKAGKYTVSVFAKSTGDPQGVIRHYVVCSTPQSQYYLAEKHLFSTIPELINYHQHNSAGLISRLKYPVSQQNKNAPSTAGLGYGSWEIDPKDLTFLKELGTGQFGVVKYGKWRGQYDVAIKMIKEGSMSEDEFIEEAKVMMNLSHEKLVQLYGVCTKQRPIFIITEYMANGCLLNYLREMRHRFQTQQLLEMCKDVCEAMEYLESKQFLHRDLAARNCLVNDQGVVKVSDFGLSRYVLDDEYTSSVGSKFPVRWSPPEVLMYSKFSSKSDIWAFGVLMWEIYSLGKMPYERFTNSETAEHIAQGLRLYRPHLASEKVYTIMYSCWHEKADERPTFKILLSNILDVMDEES

IC50 (Table 12, Formula C-I) | SMILES | also measured
100 to 1000 nM | C=CC(=O)NCCCC(=O)N1CCC[C@H](Nc2nnc(C(N)=O)c(Nc3ccc(C(C)C)cc3)n2)C1 [Example C-21, (S)-3-(1-(4-acrylamidobutanoyl)piperidin-3-ylamino)-5-(4-isopropylphenylamino)-1,2,4-triazine-6-carboxamide] | 
≤ 100 nM | C=CC(=O)N1CCC(CNc2nnc(C(N)=O)c(Nc3ccc(C(C)C)cc3)n2)CC1 [Example C-22, 3-((1-acryloylpiperidin-4-yl)methylamino)-5-(4-isopropylphenylamino)-1,2,4-triazine-6-carboxamide] | 
≤ 100 nM | C=CC(=O)N1CCC[C@@H](Nc2nnc(C(N)=O)c(Nc3ccc(C(C)C)cc3)n2)[C@H]1C [Example C-28, 3-((2R,3R)-1-acryloyl-2-methylpiperidin-3-ylamino)-5-(4-isopropylphenylamino)-1,2,4-triazine-6-carboxamide] | 
≤ 100 nM | C=CC(=O)N1CCC[C@H](N(C)c2cnc(C(N)=O)c(Nc3ccc(C(C)C)cc3)n2)C1 [Example C-23, (S)-5-((1-acryloylpiperidin-3-yl)(methyl)amino)-3-(4-isopropylphenylamino)pyrazine-2-carboxamide] | 
≤ 100 nM | C=CC(=O)N1CCC[C@H](Nc2nnc(C(N)=O)c(Nc3ccc(C(C)C)cc3)n2)C1 [Example C-17, (S)-3-(1-acryloylpiperidin-3-ylamino)-5-(4-isopropylphenylamino)-1,2,4-triazine-6-carboxamide] | 
100 to 1000 nM | C=CC(=O)NCC(=O)N1CCC[C@H](Nc2nnc(C(N)=O)c(Nc3ccc(C(C)C)cc3)n2)C1 [Example C-19, (S)-3-(1-(2-acrylamidoacetyl)piperidin-3-ylamino)-5-(4-isopropylphenylamino)-1,2,4-triazine-6-carboxamide] | 
≤ 100 nM | C=CC(=O)N1CCC[C@@H](Nc2nnc(C(N)=O)c(Nc3ccc(C(C)C)cc3)n2)C1 [Example C-26, (R)-3-(1-acryloylpiperidin-3-ylamino)-5-(4-isopropylphenylamino)-1,2,4-triazine-6-carboxamide] | 
100 to 1000 nM | CC(C)c1ccc(Nc2nc(N[C@H]3CCCN(C(=O)CN)C3)nnc2C(N)=O)cc1 [Example C-18, (S)-3-(1-(2-aminoacetyl)piperidin-3-ylamino)-5-(4-isopropylphenylamino)-1,2,4-triazine-6-carboxamide] | 
≤ 100 nM | C=CC(=O)N1CCC[C@H](N(C)c2cnc(C(N)=O)c(Nc3cc(-c4ccccc4)ns3)n2)C1 [Example C-25, (S)-5-((1-acryloylpiperidin-3-yl)(methyl)amino)-3-(3-phenylisothiazol-5-ylamino)pyrazine-2-carboxamide] | 
100 to 1000 nM | CC(C)c1ccc(Nc2nc(N[C@H]3CCCN(C(=O)CCCN)C3)nnc2C(N)=O)cc1 [Example C-20, (S)-3-(1-(4-aminobutanoyl)piperidin-3-ylamino)-5-(4-isopropylphenylamino)-1,2,4-triazine-6-carboxamide] | 
≤ 100 nM | C=CC(=O)N1CCC[C@@H](N(C)c2nnc(C(N)=O)c(Nc3ccc(C(C)C)cc3)n2)C1 [Example C-27, (R)-3-((1-acryloylpiperidin-3-yl)(methyl)amino)-5-(4-isopropylphenylamino)-1,2,4-triazine-6-carboxamide] | 
≤ 100 nM | C=CC(=O)N1CCC(CN(C)c2cnc(C(N)=O)c(Nc3ccc(C(C)C)cc3)n2)CC1 [Example C-24, 5-(((1-acryloylpiperidin-4-yl)methyl)(methyl)amino)-3-(4-isopropylphenylamino)pyrazine-2-carboxamide] | 

Continued, compound first:

SMILES | IC50 (Table 12, Formula C-I) | also measured
C=CC(=O)N(C)[C@H]1CC[C@H](N(C)c2cnc(C(N)=O)c(Nc3cc(C)ns3)n2)CC1 [Example B-6, 5-(methyl((1r,4r)-4-(N-methylacrylamido)cyclohexyl)amino)-3-(3-methylisothiazol-5-ylamino)pyrazine-2-carboxamide] |  | IC50 (Table 11, Formula B-I): ≤ 100 nM
C=CC(=O)N[C@@H]1CCC[C@@H](Nc2nnc(C(N)=O)c(Nc3ccc(C(C)C)cc3)n2)C1 (racemic) [Example B-11, 3-((1R,3R)-3-acrylamido-cyclohexylamino)-5-(4-isopropylphenylamino)-1,2,4-triazine-6-carboxamide] |  | IC50 (Table 11, Formula B-I): ≤ 100 nM
C=CC(=O)N[C@H]1CCCC[C@@H]1Nc1nnc(C(N)=O)c(Nc2ccc(C(C)C)cc2)n1 [Example B-9, 3-((1S,2S)-2-acrylamido-cyclohexylamino)-5-(4-isopropylphenylamino)-1,2,4-triazine-6-carboxamide] |  | IC50 (Table 11, Formula B-I): ≤ 100 nM
C=CC(=O)N[C@@H]1CCCN(c2cnc(C(N)=O)c(Nc3cc(C)ns3)n2)C1 [Example A-86, (R)-5-(3-acrylamidopiperidin-1-yl)-3-(3-methylisothiazol-5-ylamino)pyrazine-2-carboxamide] |  | IC50 (Table 10, Formula A-I): ≤ 100 nM
C=CC(=O)N[C@H]1CCCN(c2cnc(C(N)=O)c(Nc3ccc(-c4ncccn4)cc3)n2)C1 [Example A-89, (S)-5-(3-acrylamidopiperidin-1-yl)-3-(4-(pyrimidin-2-yl)phenylamino)pyrazine-2-carboxamide] |  | IC50 (Table 10, Formula A-I): ≤ 100 nM
C=CC(=O)N[C@H]1CCCN(c2cnc(C(N)=O)c(Nc3cc(C)ns3)n2)C1 [Example A-87, (S)-5-(3-acrylamidopiperidin-1-yl)-3-(3-methylisothiazol-5-ylamino)pyrazine-2-carboxamide] |  | IC50 (Table 10, Formula A-I): ≤ 100 nM
C=CC(=O)N[C@@H]1CCCC[C@@H]1Nc1nnc(C(N)=O)c(Nc2ccc(C(C)C)cc2)n1 [Example B-10, 3-((1S,2R)-2-acrylamido-cyclohexylamino)-5-(4-isopropylphenylamino)-1,2,4-triazine-6-carboxamide] |  | IC50 (Table 11, Formula B-I): ≤ 100 nM
C=CC(=O)N1CCCN(c2nnc(C(N)=O)c(Nc3ccc(C(C)C)cc3)n2)CC1 [Example A-90, 3-(4-acryloyl-1,4-diazepan-1-yl)-5-(4-isopropylphenylamino)-1,2,4-triazine-6-carboxamide] |  | IC50 (Table 10, Formula A-I): ≤ 100 nM
C=CC(=O)N[C@@H]1CCCC[C@H]1Nc1nnc(C(N)=O)c(Nc2ccc(C(C)C)cc2)n1 [Example B-8, 3-((1R,2R)-2-acrylamido-cyclohexylamino)-5-(4-isopropylphenylamino)-1,2,4-triazine-6-carboxamide] |  | IC50 (Table 11, Formula B-I): ≤ 100 nM
C=CC(=O)N[C@@H]1CCCN(c2cnc(C(N)=O)c(Nc3cccc(-c4ncccn4)c3)n2)C1 [Example A-88, (R)-5-(3-acrylamidopiperidin-1-yl)-3-(3-(pyrimidin-2-yl)phenylamino)pyrazine-2-carboxamide] |  | IC50 (Table 10, Formula A-I): 100 to 1000 nM
C=CC(=O)N[C@H]1CCC[C@@H](Nc2nnc(C(N)=O)c(Nc3ccc(C(C)C)cc3)n2)C1 (racemic) [Example B-12, 3-((1R,3S)-3-acrylamido-cyclohexylamino)-5-(4-isopropylphenylamino)-1,2,4-triazine-6-carboxamide] |  | IC50 (Table 11, Formula B-I): ≤ 100 nM
C=CC(=O)N[C@H]1CCCC[C@H]1Nc1nnc(C(N)=O)c(Nc2ccc(C(C)C)cc2)n1 [Example B-7, 3-((1R,2S)-2-acrylamido-cyclohexylamino)-5-(4-isopropylphenylamino)-1,2,4-triazine-6-carboxamide] |  | IC50 (Table 11, Formula B-I): ≤ 100 nM
